Source: patent publication US20250380697A1, “ISOXAZOLINE DERIVATIVE COMPOUND AND INSECTICIDAL COMPOSITION COMPRISING SAME” (KYUNG NONG CORPORATION, priority 2022, published 2025)

What was measured:
Format in all cases: in vivo
Spodoptera litura = experiment: Pesticidal activity against Spodoptera litura, leaf-dipping method; details: 48 h, read-out: mortality rate against Spodoptera litura
Procedure: Cabbage (Daiya) leaves were cut into pieces with a diameter of 5.8 cm, dipped in each of the pesticide compositions prepared in Examples (a 5% acetone solution in which each of the compounds of Synthesis Examples (concentration: 100 ppm) was diluted) for 30 seconds, and sufficiently shade-dried. Then, the shade-dried cabbage leaves were placed in a petri dish (8.8 cm in diameter) covered with a filter paper and repeatedly inoculated 3 times with the second instar larvae of Spodoptera litura, 10 larvae per inoculation. In this case, Spodoptera litura larvae used were those which were purchased from the Bio Utilization Institute (Andong, Korea). Then, the Spodoptera litura larvae were stored under the conditions of 16 hours of light and 8 hours of dark, 25±1° C., and relative humidity of 50-60%, and the number of live Spodoptera litura larvae was counted 48 hours after the inoculation. Thereafter, the larvae mortality rate was calculated in the same manner as in Test Example 1 above.

[1] = system: Frankliniella occidentalis; experiment: Pesticidal activity against Frankliniella occidentalis, spray method; details: 48 h, read-out: mortality rate against Frankliniella occidentalis
Description: A water-soaked filter paper (9.0 cm in diameter) was placed in an insect breeding dish (Lab Guide®) with a diameter of 9.0 cm and a height of 4.0 cm, and then parafilm (width 4.0 cm×height 4.0 cm) was placed thereon. Before treating with a pesticide composition, 10 adult Frankliniella occidentalis were inoculated per petri dish using a No. 4 brush. In this case, Frankliniella occidentalis adults used were those purchased from the Bio Utilization Institute (Andong, Korea). Then, each of the pesticide compositions prepared in Examples (a diluted solution in which each of the compounds of Synthesis Examples (concentration: 100 ppm) was diluted; the solvent=distilled water+acetone 50,000 mg/L+Triton X-100 100 mg/L) was loaded into a 100 mL small sprayer, and sprayed 10-12 times at a distance of 30 cm and a height of 50 cm, and one cotyledons of soybean, which is a host plant, were added one at a time. Then, the Frankliniella occidentalis adults were stored under the conditions of 16 hours of light and 8 hours of darkness, 25±1° C., and relative humidity of 50-60%, and the number of live Frankliniella occidentalis adults was counted 48 hours after the inoculation. Thereafter, the larvae mortality rate was calculated in the same manner as in Test Example 1 above.

Plutella xylostella = experiment: Pesticidal activity against Plutella xylostella, leaf-dipping method; details: 48 h, read-out: larvae mortality rate against Plutella xylostella
Procedure: Cabbage (Daiya) leaves were cut into pieces with a diameter of 5.8 cm, dipped in each of the pesticide compositions prepared in Examples (a 5% acetone solution in which each of the compounds of Synthesis Examples (concentration: 100 ppm) was diluted) for 30 seconds, and sufficiently shade-dried. Then, the shade-dried cabbage leaves were placed in a petri dish (8.8 cm in diameter) covered with a filter paper and repeatedly inoculated 3 times with third instar larvae of Plutella xylostella, 10 larvae per inoculation. In particular, Plutella xylostella larvae used were those which were collected in a place near Gyeongju (Korea) in 2000 and bred in a breeding room for multiple generations. Then, the Plutella xylostella larvae were stored under the conditions of 16 hours of light and 8 hours of dark, 25±1° C., and relative humidity of 50-60%, and the number of live Plutella xylostella larvae was counted 48 hours after the inoculation. Thereafter, the larvae mortality rate was calculated by correcting the density after treatment based on the density before treatment, as shown in Equation 1 and Equation 2 below, and converting the same into the corrected mortality rate for untreated (Reference: A method of computing the effectiveness of an insecticide. J. Econ. Entomol. 18:265˜267. Abbott, 1925).

Measured: mortality at 100 ppm

Cc1cc(C2=NOC(c3cc(Cl)cc(Cl)c3)(C(F)(F)F)C2)ccc1C(=O)NC(=O)C1(F)CC1 (stereo not drawn) [Synthesis Example 49]
≥ 80%: all assays above

Cc1cc(C2=NOC(c3cc(Cl)cc(Cl)c3)(C(F)(F)F)C2)ccc1C(=O)NC(=O)C1(C(F)(F)F)CC1 (stereo not drawn) [Synthesis Example 28]
≥ 80%: all assays above

CCN(C(=O)c1ccc(C2=NOC(c3cc(Cl)cc(C(F)(F)F)c3)(C(F)(F)F)C2)cc1C)C(=O)C1CC1 (stereo not drawn) [Synthesis Example 19]
≥ 80%: all assays above

Cc1cc(C2=NOC(c3cc(Cl)cc(C(F)(F)F)c3)(C(F)(F)F)C2)ccc1C(=O)NC(=O)C1CCCCC1 (stereo not drawn) [Synthesis Example 40]
≥ 80%: all assays above

Cc1cc(C2=NOC(c3cc(Cl)cc(C(F)(F)F)c3)(C(F)(F)F)C2)ccc1C(=O)NC(=O)c1ccco1 (stereo not drawn) [Synthesis Example 59]
≥ 80%: all assays above

Cc1cc(C(=O)NC(=O)c2ccc(C3=NOC(c4cc(Cl)cc(C(F)(F)F)c4)(C(F)(F)F)C3)cc2C)no1 (stereo not drawn) [Synthesis Example 82]
≥ 80%: all assays above

Cc1ccc(C(=O)N(C)C(=O)c2ccc(C3=NOC(c4cc(Cl)cc(C(F)(F)F)c4)(C(F)(F)F)C3)cc2C)o1 (stereo not drawn) [Synthesis Example 18]
≥ 80%: all assays above

Cn1cc(C(=O)NC(=O)c2ccc(C3=NOC(c4cc(Cl)cc(Cl)c4)(C(F)(F)F)C3)c3ccccc23)c(C(F)F)n1 (stereo not drawn) [Synthesis Example 46]
≥ 80%: all assays above

Cc1cc(C2=NOC(c3cc(Cl)cc(C(F)(F)F)c3)(C(F)(F)F)C2)ccc1C(=O)N(C(=O)C1CC1)C1CC1 (stereo not drawn) [Synthesis Example 23]
≥ 80%: all assays above

O=C(NC(=O)C1CC1)c1ccc(C2=NOC(c3cc(Cl)cc(C(F)(F)F)c3)(C(F)(F)F)C2)cc1Br (stereo not drawn) [Synthesis Example 8]
≥ 80%: all assays above

Cc1cc(C(=O)NC(=O)c2ccc(C3=NOC(c4cc(Cl)cc(Cl)c4)(C(F)(F)F)C3)cc2C)no1 (stereo not drawn) [Synthesis Example 80]
≥ 80%: all assays above

Cc1cc(C2=NOC(c3cc(Cl)cc(C(F)(F)F)c3)(C(F)(F)F)C2)ccc1C(=O)NC(=O)c1nccs1 (stereo not drawn) [Synthesis Example 78]
≥ 80%: all assays above

Cc1cc(C(=O)NC(=O)c2ccc(C3=NOC(c4cc(Cl)cc(C(F)(F)F)c4)(C(F)(F)F)C3)cc2C)c(C)o1 (stereo not drawn) [Synthesis Example 57]
≥ 80%: all assays above

Cc1cc(C2=NOC(c3cc(Cl)cc(Cl)c3)(C(F)(F)F)C2)ccc1C(=O)NC(=O)C1(C)CC1 (stereo not drawn) [Synthesis Example 24]
≥ 80%: all assays above

O=C(NC(=O)C1CC1)c1ccc(C2=NOC(c3cc(Cl)cc(C(F)(F)F)c3)(C(F)(F)F)C2)cc1Cl (stereo not drawn) [Synthesis Example 9]
≥ 80%: all assays above

Cc1cc(C2=NOC(c3cc(Cl)cc(Cl)c3)(C(F)(F)F)C2)ccc1C(=O)NC(=O)CC1CC1 (stereo not drawn) [Synthesis Example 55]
≥ 80%: all assays above

Cc1cc(C2=NOC(c3cc(Cl)cc(Cl)c3)(C(F)(F)F)C2)ccc1C(=O)NC(=O)c1nccs1 (stereo not drawn) [Synthesis Example 79]
≥ 80%: all assays above

Cc1cc(C2=NOC(c3cc(Cl)cc(C(F)(F)F)c3)(C(F)(F)F)C2)ccc1C(=O)NC(=O)N1CCCCC1 (stereo not drawn) [Synthesis Example 67]
≥ 80%: all assays above

Cc1cc(C2=NOC(c3cc(Cl)cc(C(F)(F)F)c3)(C(F)(F)F)C2)ccc1C(=O)NC(=O)c1cc(C2CC2)on1 (stereo not drawn) [Synthesis Example 84]
≥ 80%: all assays above

Cc1cc(C2=NOC(c3cc(Cl)cc(C(F)(F)F)c3)(C(F)(F)F)C2)ccc1C(=O)NC(=O)CC1CC1 (stereo not drawn) [Synthesis Example 75]
≥ 80%: all assays above

CC(C)=CC(=O)NC(=O)c1ccc(C2=NOC(c3cc(Cl)cc(C(F)(F)F)c3)(C(F)(F)F)C2)cc1C (stereo not drawn) [Synthesis Example 70]
≥ 80%: all assays above

Cc1cc(C(=O)NC(=O)c2ccc(C3=NOC(c4cc(Cl)cc(Cl)c4)(C(F)(F)F)C3)cc2C)c(C)o1 (stereo not drawn) [Synthesis Example 56]
≥ 80%: all assays above

Cc1cc(C2=NOC(c3cc(Cl)cc(Cl)c3)(C(F)(F)F)C2)ccc1C(=O)NC(=O)c1cn(C)nc1C(F)(F)F (stereo not drawn) [Synthesis Example 47]
≥ 80%: all assays above

Cc1cc(C2=NOC(c3cc(Cl)cc(Cl)c3)(C(F)(F)F)C2)ccc1C(=O)NC(=O)C1CCCC1 (stereo not drawn) [Synthesis Example 68]
≥ 80%: all assays above

Cc1cc(C2=NOC(c3cc(Cl)cc(Cl)c3)(C(F)(F)F)C2)ccc1C(=O)NC(=O)c1ccco1 (stereo not drawn) [Synthesis Example 58]
≥ 80%: all assays above

Cc1cc(C2=NOC(c3cc(Cl)cc(Cl)c3)(C(F)(F)F)C2)ccc1C(=O)NC(=O)c1ccno1 (stereo not drawn) [Synthesis Example 81]
≥ 80%: all assays above

O=C(NC(=O)C1CC1)c1ccc(C2=NOC(c3cc(Cl)cc(C(F)(F)F)c3)(C(F)(F)F)C2)cn1 (stereo not drawn) [Synthesis Example 10]
≥ 80%: all assays above

Cc1cc(C2=NOC(c3cc(Cl)cc(C(F)(F)F)c3)(C(F)(F)F)C2)ccc1C(=O)NC(=O)C1CCCC1 (stereo not drawn) [Synthesis Example 69]
≥ 80%: all assays above

Cc1cc(C2=NOC(c3cc(Cl)cc(C(F)(F)F)c3)(C(F)(F)F)C2)ccc1C(=O)NC(=O)C1CCC1 (stereo not drawn) [Synthesis Example 33]
≥ 80%: all assays above
